# Reference: publication PMC4428032 (Bioconjugate Chemistry, 2015)
# Tests used:
# [1] = cited from earlier work
# [2] = T1 relaxivity measurements at 0.5 T; format: physicochemical; conditions: 20 MHz, 25 °C
SMILES,thermodynamic stability constant log K [1],T1 relaxivity [2] [mM^–1 s^–1]
O=C([O-])CN1CCN(CC(=O)[O-])CCN(CC(=O)[O-])CC1.[Ga+3] [Ga-NOTA],31.0,–
O=C([O-])CN1CCN(CC(=O)[O-])CCN(CC(=O)O)CCN(CC(=O)[O-])CC1.[Gd+3] [Gd-DOTA],24.7,–
O=C([O-])CN1CCN(CC(=O)[O-])CCN(CC(=O)[O-])CC1.[Gd+3] [Gd-NOTA],14.3,–
CNC[C@H](O)[C@@H](O)[C@H](O)[C@H](O)CO.CNC[C@H](O)[C@@H](O)[C@H](O)[C@H](O)CO.O=C([O-])CN(CCN(CC(=O)[O-])CC(=O)O)CCN(CC(=O)[O-])CC(=O)O.[Gd+3] [Magnevist],–,4.1
